Our source for the Emax and EC50 values is patent US10738030B2, “Modulators of cystic fibrosis transmembrane conductance regulator” (Vertex Pharmaceuticals Incorporated, priority 2016, dated 2020).

The experiment addresses T1, F508del (Homo sapiens, UniProt P13569, DEL508-508).
T1 construct: expressed in transfected cells
The experiment can be described thus: Membrane potential optical assay (FRET voltage-sensor dyes), identification of correction compounds. It counts as cell-based. The following applies: NIH3T3 cells stably expressing F508del, procedures described above; for Emax: maximum efficacy, read-out: Max Efficacy; for EC50: modulation of CFTR activity. The gist of the method:
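NIH3T3 mouse fibroblasts stably expressing F508del incubated 16 hrs at 37° C. in serum-free medium with or without compound. After dye loading (CC2-DMPE/DiSBAC2(3)), 10 μM forskolin plus 20 μM genistein added in Cl⁻-free medium; depolarization from Cl⁻ efflux read by FRET on VIPR II.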

T1 sequence (P13569 with tags, fused parts or gaps DEL508-508): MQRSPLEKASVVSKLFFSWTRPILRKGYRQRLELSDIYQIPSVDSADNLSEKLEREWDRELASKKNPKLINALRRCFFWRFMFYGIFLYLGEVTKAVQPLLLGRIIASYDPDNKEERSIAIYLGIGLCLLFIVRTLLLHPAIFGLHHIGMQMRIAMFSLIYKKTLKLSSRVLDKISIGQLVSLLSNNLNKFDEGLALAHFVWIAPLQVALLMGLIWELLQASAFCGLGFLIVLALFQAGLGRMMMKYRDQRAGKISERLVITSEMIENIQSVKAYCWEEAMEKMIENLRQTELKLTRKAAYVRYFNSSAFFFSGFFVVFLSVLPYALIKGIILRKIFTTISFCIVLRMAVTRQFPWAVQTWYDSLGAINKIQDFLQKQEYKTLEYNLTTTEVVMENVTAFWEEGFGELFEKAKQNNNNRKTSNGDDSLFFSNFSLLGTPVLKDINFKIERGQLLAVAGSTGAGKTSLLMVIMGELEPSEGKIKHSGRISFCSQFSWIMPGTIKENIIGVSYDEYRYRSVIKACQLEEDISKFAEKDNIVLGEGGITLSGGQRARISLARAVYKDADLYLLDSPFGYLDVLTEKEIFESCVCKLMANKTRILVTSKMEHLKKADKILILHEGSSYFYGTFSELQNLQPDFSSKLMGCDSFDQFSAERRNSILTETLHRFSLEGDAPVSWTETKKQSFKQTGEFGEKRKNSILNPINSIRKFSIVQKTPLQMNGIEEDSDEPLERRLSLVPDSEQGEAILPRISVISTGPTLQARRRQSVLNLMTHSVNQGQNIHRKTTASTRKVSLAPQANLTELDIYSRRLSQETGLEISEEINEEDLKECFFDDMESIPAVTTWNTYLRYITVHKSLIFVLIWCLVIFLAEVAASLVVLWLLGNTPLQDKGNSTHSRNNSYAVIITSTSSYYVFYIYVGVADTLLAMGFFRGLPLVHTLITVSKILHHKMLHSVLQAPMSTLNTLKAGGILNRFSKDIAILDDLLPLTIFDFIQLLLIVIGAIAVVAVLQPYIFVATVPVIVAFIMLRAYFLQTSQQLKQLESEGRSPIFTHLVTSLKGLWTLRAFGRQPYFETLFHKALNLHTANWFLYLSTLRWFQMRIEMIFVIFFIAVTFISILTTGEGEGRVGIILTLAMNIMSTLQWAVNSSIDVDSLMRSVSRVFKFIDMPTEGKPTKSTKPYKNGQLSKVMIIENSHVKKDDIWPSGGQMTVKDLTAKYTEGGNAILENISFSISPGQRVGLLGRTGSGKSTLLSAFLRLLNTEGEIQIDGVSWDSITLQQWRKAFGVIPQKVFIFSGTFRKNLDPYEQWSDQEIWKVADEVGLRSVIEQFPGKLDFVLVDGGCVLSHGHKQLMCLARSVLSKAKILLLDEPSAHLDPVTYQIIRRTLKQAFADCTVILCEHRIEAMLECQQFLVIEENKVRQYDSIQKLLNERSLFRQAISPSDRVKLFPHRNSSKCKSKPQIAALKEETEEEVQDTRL

The term EC50 denotes the concentration giving half of the maximal effect. For the molecule `CC(C)COc1cc(F)cc(-c2ccc(C(=O)NS(=O)(=O)c3cccc(N)n3)c(NCCC(C)(C)O)n2)c1` [Compound 80, N-[(6-amino-2-pyridyl)sulfonyl]-6-(3-fluoro-5-isobutoxy-phenyl)-2-[(3-hydroxy-3-methyl-butyl)amino]pyridine-3-carboxamide], the Emax lay within 30 to 80% and the concentration giving a half-maximal response (EC50) was more than 10 µM.

Consider `CC(C)COc1cc(F)cc(-c2ccc(C(=O)NS(=O)(=O)c3cccc(N)n3)c(OCCC(F)(F)F)n2)c1` [Compound 81, N-[(6-amino-2-pyridyl)sulfonyl]-6-(3-fluoro-5-isobutoxy-phenyl)-2-(3,3,3-trifluoropropoxy)pyridine-3-carboxamide], for which the Emax lay in the range of 30 to 80% and the EC50 was less than 3 µM.

With `CC(C)COc1cc(F)cc(-c2ccc(C(=O)NS(=O)(=O)c3cccc(N)n3)c(OCCCC(F)(F)F)n2)c1` [Compound 82, N-[(6-amino-2-pyridyl)sulfonyl]-6-(3-fluoro-5-isobutoxy-phenyl)-2-(4,4,4-trifluorobutoxy)pyridine-3-carboxamide], the Emax is 30 to 80% and the EC50 was less than 3 µM.

As for `CC(C)COc1cc(F)cc(-c2ccc(C(=O)NS(=O)(=O)c3cccc(N)n3)c(OC/C=C/C(F)(F)F)n2)c1` [Compound 83, N-[(6-amino-2-pyridyl)sulfonyl]-6-(3-fluoro-5-isobutoxy-phenyl)-2-[(E)-4,4,4-trifluorobut-2-enoxy]pyridine-3-carboxamide], the Emax was in the range of 30 to 80% and the EC50 is less than 3 µM.

With `CCCCCNc1nc(-c2cc(F)cc(OCC(C)C)c2)ccc1C(=O)NS(=O)(=O)c1cccc(N)n1` [Compound 84, N-[(6-amino-2-pyridyl)sulfonyl]-6-(3-fluoro-5-isobutoxy-phenyl)-2-(pentylamino)pyridine-3-carboxamide], the Emax is more than 80% and the EC50 is 3 to 10 µM.

Consider `CCOc1cccc2c1CN(CC(C)(C)C)C2(C)C(=O)NS(=O)(=O)c1cccc(=O)[nH]1` (centres unmarked) [Compound 85, 2-(2,2-dimethylpropyl)-4-ethoxy-1-methyl-N-[(6-oxo-1H-pyridin-2-yl)sulfonyl]isoindoline-1-carboxamide], for which the Emax is not above 30% and the EC50 was more than 10 µM.

Regarding `CC(C)COc1cc(F)cc(-c2ccc(C(=O)NS(=O)(=O)c3ccccc3)c(N(C)CCCC(=O)O)n2)c1` [Compound 86, 4-[[3-(benzenesulfonylcarbamoyl)-6-(3-fluoro-5-isobutoxy-phenyl)-2-pyridyl]-methyl-amino]butanoic Acid], the Emax was not above 30% and the EC50 was more than 10 µM.
